Assays:
CAL-85-1 [1] = experiment: normalised viability (% of control), CellTiter-Blue; higher = more viable cells (about 100 = DMSO control); conditions: incubation time: 72 h
Procedure: (§1)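 DSRT, CellTiter-Blue viability, 72 h incubation. Signal is normalised to DMSO and benzethonium chloride controls. Value is the normalised response at dose 7.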

DU-4475 [2] = experiment: as above; conditions: incubation time: 72 h
Procedure: as §1

CAL-148 [3] = experiment: as above; conditions: incubation time: 72 h
Procedure: as §1

CAL-51 [4] = experiment: as above; conditions: incubation time: 72 h
Procedure: as §1

MDA-MB-453 [5] = experiment: as above; conditions: incubation time: 72 h
Procedure: as §1

HDQ-P1 [6] = experiment: as above; conditions: incubation time: 72 h
Procedure: as §1

HCC1937 = conditions: 72 h
Method in brief: (§2)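 Breast cancer cell lines in 20 µl suspension were seeded onto 384-well plates that already held compound dissolved in 5 µl medium and were incubated for 72 h. Viability was measured by adding 2.5 µl CellTiter-Blue for 2 h at 37 °C and reading fluorescence at 560/590 nm. Each plate was normalised to vehicle and a positive kill control and checked by Z'-factor. EC50 was taken from a fitted percent-inhibition dose-response curve, censored at the highest concentration, and rows with a drug sensitivity score of zero were removed.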

CAL-120 [7] = experiment: normalised viability (% of control), CellTiter-Blue; higher = more viable cells (about 100 = DMSO control); conditions: incubation time: 72 h
Method in brief: (§3)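 Plates were quality-checked by Z'-factor and normalised to vehicle (100) and a positive kill control (0). The underlying assay incubated breast cancer cell lines for 72 h on 384-well plates with compound, then added 2.5 µl CellTiter-Blue for 2 h at 37 °C and read at 560/590 nm. The value is normalised viability at a single listed concentration of the series.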

HCC1143 [8] = experiment: as above; conditions: incubation time: 72 h
Method in brief: as §3

MDA-MB-436 [9] = experiment: as above; conditions: incubation time: 72 h
Method in brief: as §3

CAL-51 [10] = experiment: as above; conditions: incubation time: 72 h; remark: listed apart in the source
Method in brief: as §3

CAL-85-1 [11] = experiment: normalised response (% of control), CellTiter-Glo; higher = more viable cells (100 = DMSO, 0 = benzethonium chloride kill control); conditions: incubation time: 72 h
Method in brief: (§4)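 Each entry is the normalised signal at a single concentration within a series. The series comprised 5 concentrations in 10-fold steps over a compound-specific 10,000-fold range, placed in 384-well plates into which breast cancer cell lines were seeded as 20 µl suspension and incubated 72 h. CellTox Green (485/520 nm) fluorescence and then CellTiter-Glo luminescence were read, with signals normalised per plate to 0.1 % DMSO (100) and a positive kill control (0).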

MDA-MB-231 = experiment: as above; conditions: incubation time: 72 h
Method in brief: as §4

DU-4475 [12] = experiment: as above; conditions: incubation time: 72 h
Method in brief: as §4

CAL-148 [13] = experiment: as above; conditions: incubation time: 72 h
Method in brief: as §4

MFM-223 = experiment: as above; conditions: incubation time: 72 h
Method in brief: as §4

MCF-10A = experiment: as above; conditions: incubation time: 72 h
Method in brief: as §4

CAL-120 [14] = experiment: as above; conditions: incubation time: 72 h
Method in brief: as §4

HCC1599 = experiment: as above; conditions: incubation time: 72 h
Method in brief: as §4

HCC1143 [15] = experiment: as above; conditions: incubation time: 72 h
Method in brief: as §4

MDA-MB-436 [16] = experiment: as above; conditions: incubation time: 72 h
Method in brief: as §4

BT-549 = experiment: as above; conditions: incubation time: 72 h
Method in brief: as §4

MDA-MB-453 [17] = experiment: as above; conditions: incubation time: 72 h
Method in brief: as §4

HDQ-P1 [18] = experiment: as above; conditions: incubation time: 72 h
Method in brief: as §4

MDA-MB-436 [19] = conditions: 72 h
Method in brief: as §2

Structure (SMILES)	normalised viability (CAL-85-1 [1]) [%]	normalised viability (DU-4475 [2]) [%]	normalised viability (CAL-148 [3]) [%]	normalised viability (CAL-51 [4]) [%]	normalised viability (MDA-MB-453 [5]) [%]	normalised viability (HDQ-P1 [6]) [%]	other results
Clc1ccc(C(c2ccccc2Cl)C(Cl)Cl)cc1 (stereo not given) [Mitotane] (1000 nM)	83.2	87.9	108	105	97.5	104	
COc1cccc2cc(-c3nc([C@H]4CC[C@H](C(=O)O)CC4)n4ncnc(N)c34)[nH]c12 [OSI-027] (1000 nM)	61	68.1	65.1	61.8	37.5	39.3	
OC[C@H]1O[C@@H](n2cnc3c2N=CNC[C@H]3O)C[C@@H]1O [Pentostatin] (1000 nM)	108	102	123	89.9	98.2	85.4	
N#CC[C@H](C1CCCC1)n1cc(-c2ncnc3[nH]ccc23)cn1 [Ruxolitinib]							EC50, CellTiter-Blue viability (HCC1937): 1.65 µM; normalised viability (CAL-120 [7]; 10 nM): 102%; normalised viability (CAL-120 [7]; 1000 nM): 99%; normalised viability (CAL-120 [7]; 10000 nM): 94.5%; normalised viability (HCC1143 [8]; 10 nM): 107%; normalised viability (HCC1143 [8]; 1000 nM): 107%; normalised viability (HCC1143 [8]; 10000 nM): 98.2%; normalised viability (MDA-MB-436 [9]; 10 nM): 93.2%; normalised viability (MDA-MB-436 [9]; 1000 nM): 112%; normalised viability (MDA-MB-436 [9]; 10000 nM): 102%; normalised viability (CAL-51 [10]; 3 nM): 84.6%; normalised viability (CAL-51 [10]; 30 nM): 97%; normalised viability (CAL-51 [10]; 100 nM): 97.4%
N#CC[C@H](C1CCCC1)n1cc(-c2ncnc3[nH]ccc23)cn1 [Ruxolitinib] (1000 nM)	110	112	101	90	92.4	91.1	
C=CC[C@@H]1/C=C(\C)C[C@H](C)C[C@H](OC)[C@H]2O[C@@](O)(C(=O)C(=O)N3CCCC[C@H]3C(=O)O[C@H](/C(C)=C/[C@@H]3CC[C@@H](O)[C@H](OC)C3)[C@H](C)[C@@H](O)CC1=O)[C@H](C)C[C@@H]2OC [Tacrolimus] (1000 nM)	95.4	115	103	96.6	108	111	
C=CCNC1=C2C[C@@H](C)C[C@H](OC)[C@H](O)[C@@H](C)/C=C(\C)[C@H](OC(N)=O)[C@@H](OC)/C=C\C=C(/C)C(=O)NC(=CC1=O)C2=O [Tanespimycin] (1000 nM)	24.7	0.99	20.8	24.2	7.14	22.9	
CO[C@H]1C[C@@H]2CC[C@@H](C)[C@@](O)(O2)C(=O)C(=O)N2CCCC[C@H]2C(=O)O[C@H]([C@H](C)C[C@@H]2CC[C@@H](OC(=O)C(C)(CO)CO)[C@H](OC)C2)CC(=O)[C@H](C)/C=C(\C)[C@@H](O)[C@@H](OC)C(=O)[C@H](C)C[C@H](C)/C=C/C=C/C=C/1C [Temsirolimus] (100 nM)	53.2	50.6	37	37.9	24.9	71.8	normalised response (CAL-85-1 [11]): 60.5%; normalised response (MDA-MB-231): 90.2%; normalised response (DU-4475 [12]): 73.6%; normalised response (CAL-148 [13]): 58.1%; normalised response (MFM-223): 67.7%; normalised response (MCF-10A): 88.6%; normalised response (CAL-120 [14]): 65.4%; normalised response (HCC1599): 90.8%; normalised response (HCC1143 [15]): 65.2%; normalised response (MDA-MB-436 [16]): 83%; normalised response (BT-549): 56.3%; normalised response (MDA-MB-453 [17]): 58.9%; normalised response (HDQ-P1 [18]): 77.9%
C[C@]1(c2nc3c(C(N)=O)cccc3[nH]2)CCCN1 [Veliparib] (1000 nM)	73.3	82.1	106	107	84.4	97.1	
CC[C@]1(O)C[C@@H]2CN(CCc3c([nH]c4ccccc34)[C@@](C(=O)OC)(c3cc4c(cc3OC)N(C)[C@H]3[C@@](O)(C(=O)OC)[C@H](OC(C)=O)[C@]5(CC)C=CCN6CC[C@]43[C@@H]65)C2)C1 [Vinblastine] (100 nM)	30.2	34.8	20.1	23.3	23.8	37.6	
CS(=O)(=O)c1ccc(C(=O)Nc2ccc(Cl)c(-c3ccccn3)c2)c(Cl)c1 [Vismodegib]							EC50, CellTiter-Blue viability (HCC1937): 3.92 µM; EC50, CellTiter-Blue viability (MDA-MB-436 [19]): 0.0588 µM; normalised viability (CAL-120 [7]; 10 nM): 89.7%; normalised viability (CAL-120 [7]; 1000 nM): 90.8%; normalised viability (CAL-120 [7]; 10000 nM): 85.6%; normalised viability (HCC1143 [8]; 10 nM): 93.1%; normalised viability (HCC1143 [8]; 1000 nM): 93.6%; normalised viability (HCC1143 [8]; 10000 nM): 92.9%; normalised viability (MDA-MB-436 [9]; 10 nM): 90.9%; normalised viability (MDA-MB-436 [9]; 1000 nM): 23.6%; normalised viability (MDA-MB-436 [9]; 10000 nM): 76%; normalised viability (CAL-51 [10]; 3 nM): 114%; normalised viability (CAL-51 [10]; 30 nM): 104%; normalised viability (CAL-51 [10]; 100 nM): 106%
CS(=O)(=O)c1ccc(C(=O)Nc2ccc(Cl)c(-c3ccccn3)c2)c(Cl)c1 [Vismodegib] (1000 nM)	97.1	114	98.3	99.1	98.3	92.4	

Source: the supplement of paper PMC4862054
